Experimental data published in ChEMBL document CHEMBL3885861, “Open TG-GATES”.

Organism: Rattus norvegicus
Assay: Open TG-GATES - Regimen: Single
Format: toxicity, organism-based, Sprague-Dawley
Set-up: regimen Single, gender Male, age 6 weeks
Details: in vivo, po, 5 mg/kg, route gavage, dose level Middle; for Bas / Eos / Fbg / Hb / Ht / Lym / MCHC / MCV / Mono / Neu / Plat / RBC / Ret / WBC: tissue Blood; for KIDNEY_TOTAL: tissue Kidney; for LIVER: tissue Liver; for ALT / AST / BUN / CRE / Ca / Cl / DBIL / GLC / IP / K / LDH / Na / PL / RALB / TBIL / TC / TP / gamma-GTP: tissue Plasma

## C[C@@H]1C[C@H]2[C@@H]3CCC4=CC(=O)C=C[C@]4(C)[C@@]3(F)[C@@H](O)C[C@]2(C)[C@@]1(O)C(=O)CO [DEXAMETHASONE]
3 h
  TERMINAL_BW: 210 g
  Bas: 0%
  Eos: 0.6%
  Fbg: 235.2 mg/dL
  Hb: 13.2 g/dL
  Ht: 40.3%
  Lym: 71.4%
  MCHC: 32.8%
  MCV: 65 fL
  Mono: 2.4%
  Neu: 25.6%
  Plat: 121.2 x10_4/uL
  RBC: 620.6 x10_4/ul
  Ret: 9.6%
  WBC: 46.5 x10_2/uL
  KIDNEY_TOTAL: 0.6 g
  LIVER: 10.6 g
  ALT: 41 IU/L
  AST: 77.8 IU/L
  BUN: 15 mg/dL
  CRE: 0.4 mg/dL
  Ca: 11.4 mg/dL
  Cl: 101.8 meq/L
  DBIL: 0.014 mg/dL
  GLC: 193.4 mg/dL
  IP: 11.9 mg/dL
  K: 4.1 meq/L
  LDH: 103.8 IU/L
  Na: 141.2 meq/L
  PL: 157.4 mg/dL
  RALB: 4.2 g/dL
  TBIL: 0.046 mg/dL
  TC: 91.2 mg/dL
  TP: 6 g/dL
  gamma-GTP: 0.4 IU/L
6 h
  TERMINAL_BW: 205.5 g
  Bas: 0%
  Eos: 0.6%
  Fbg: 243.6 mg/dL
  Hb: 12.9 g/dL
  Ht: 39.2%
  Lym: 59.4%
  MCHC: 32.8%
  MCV: 64.4 fL
  Mono: 3.6%
  Neu: 36.6%
  Plat: 129.5 x10_4/uL
  RBC: 609.4 x10_4/ul
  Ret: 6.7%
  WBC: 27.3 x10_2/uL
  KIDNEY_TOTAL: 0.6 g
  LIVER: 11.2 g
  ALT: 39.8 IU/L
  AST: 82.6 IU/L
  BUN: 17.2 mg/dL
  CRE: 0.4 mg/dL
  Ca: 11.6 mg/dL
  Cl: 103.2 meq/L
  DBIL: 0.01 mg/dL
  GLC: 223.8 mg/dL
  IP: 7.7 mg/dL
  K: 4.1 meq/L
  LDH: 84.4 IU/L
  Na: 138.8 meq/L
  PL: 153.6 mg/dL
  RALB: 4.5 g/dL
  TBIL: 0.036 mg/dL
  TC: 101.4 mg/dL
  TP: 6.3 g/dL
  gamma-GTP: 0 IU/L
9 h
  TERMINAL_BW: 199.5 g
  Bas: 0%
  Eos: 0.2%
  Fbg: 246 mg/dL
  Hb: 13.6 g/dL
  Ht: 41.5%
  Lym: 37%
  MCHC: 32.7%
  MCV: 64.4 fL
  Mono: 1.4%
  Neu: 61.2%
  Plat: 122.1 x10_4/uL
  RBC: 645.2 x10_4/ul
  Ret: 6%
  WBC: 18.2 x10_2/uL
  KIDNEY_TOTAL: 0.4 g
  LIVER: 10.8 g
  ALT: 39.4 IU/L
  AST: 76.8 IU/L
  BUN: 19.4 mg/dL
  CRE: 0.4 mg/dL
  Ca: 10.9 mg/dL
  Cl: 102 meq/L
  DBIL: 0.008 mg/dL
  GLC: 226 mg/dL
  IP: 7.2 mg/dL
  K: 3.9 meq/L
  LDH: 104.4 IU/L
  Na: 138.6 meq/L
  PL: 179.4 mg/dL
  RALB: 4.6 g/dL
  TBIL: 0.032 mg/dL
  TC: 118 mg/dL
  TP: 6.7 g/dL
  gamma-GTP: 0.8 IU/L
24 h
  TERMINAL_BW: 208.2 g
  Bas: 0%
  Eos: 1%
  Fbg: 232.4 mg/dL
  Hb: 13.4 g/dL
  Ht: 40.4%
  Lym: 46.8%
  MCHC: 33.1%
  MCV: 63.3 fL
  Mono: 9.2%
  Neu: 43.2%
  Plat: 136.7 x10_4/uL
  RBC: 638.4 x10_4/ul
  Ret: 5.4%
  WBC: 47.5 x10_2/uL
  KIDNEY_TOTAL: 0.4 g
  LIVER: 13.2 g
  ALT: 37.2 IU/L
  AST: 83.4 IU/L
  BUN: 17.6 mg/dL
  CRE: 0.4 mg/dL
  Ca: 11.4 mg/dL
  Cl: 99.4 meq/L
  DBIL: 0.022 mg/dL
  GLC: 205 mg/dL
  IP: 6.8 mg/dL
  K: 5.1 meq/L
  LDH: 96 IU/L
  Na: 137.8 meq/L
  PL: 249.2 mg/dL
  RALB: 4.8 g/dL
  TBIL: 0.044 mg/dL
  TC: 119.2 mg/dL
  TP: 6.8 g/dL
